Patent US11560371B2, “Cereblon binding compounds, compositions thereof, and methods of treatment therewith” (Celgene Corporation, priority 2020, dated 2023)
Structures can show the parent of a compound that is named as a salt.

Target: T1, AR (Homo sapiens, UniProt P10275)
T1 construct: endogenous in cells; host or cells: VCaP cells
T1 sequence (P10275 1-920): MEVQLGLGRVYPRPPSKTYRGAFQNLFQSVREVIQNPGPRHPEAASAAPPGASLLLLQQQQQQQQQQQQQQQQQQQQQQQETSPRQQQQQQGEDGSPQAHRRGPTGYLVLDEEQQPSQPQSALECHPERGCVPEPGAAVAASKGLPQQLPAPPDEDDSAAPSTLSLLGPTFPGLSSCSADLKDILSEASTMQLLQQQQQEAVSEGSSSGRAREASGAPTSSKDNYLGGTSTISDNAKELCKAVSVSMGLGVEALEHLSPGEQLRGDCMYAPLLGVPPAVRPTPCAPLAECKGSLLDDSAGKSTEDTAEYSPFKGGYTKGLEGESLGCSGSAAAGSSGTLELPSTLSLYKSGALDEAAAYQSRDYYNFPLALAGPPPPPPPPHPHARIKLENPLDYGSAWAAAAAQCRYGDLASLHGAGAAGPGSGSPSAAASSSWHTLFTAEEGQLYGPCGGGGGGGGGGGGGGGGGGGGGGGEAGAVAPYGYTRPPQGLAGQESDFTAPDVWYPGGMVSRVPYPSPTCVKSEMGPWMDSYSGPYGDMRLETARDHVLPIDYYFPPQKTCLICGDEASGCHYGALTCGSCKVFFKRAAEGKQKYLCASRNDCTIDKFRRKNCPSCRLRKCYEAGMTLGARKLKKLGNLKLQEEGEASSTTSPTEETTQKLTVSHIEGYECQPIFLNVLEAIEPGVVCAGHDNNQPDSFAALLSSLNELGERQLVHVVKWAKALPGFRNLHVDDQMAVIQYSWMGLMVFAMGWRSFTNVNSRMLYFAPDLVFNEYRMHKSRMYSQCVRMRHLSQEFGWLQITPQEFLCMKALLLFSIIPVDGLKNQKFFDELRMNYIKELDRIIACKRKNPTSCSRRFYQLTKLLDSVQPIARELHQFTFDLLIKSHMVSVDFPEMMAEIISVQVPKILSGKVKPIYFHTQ
Experiment: VCAP AR Degradation Assay
Type: cell-based
Details: VCaP cells, 24 h, AR ELISA; for DC50: concentration of compound when AR level = 50% of DMSO control (50% AR degradation); for Y: lowest measured AR level normalized to DMSO control (AR degradation efficiency)
How it was run: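 VCaP cells (DMEM, 8% FBS) were treated 24 h at 37 °C with a 10-point 1:3 series from 5 µM final, with 0.1% DMSO control. Total AR in lysates was measured by sandwich ELISA as percent of DMSO. A 4-parameter fit gave DC50 (50% of control) and EC50; fitted Ymin marks degradation efficiency.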

Structure (SMILES) | DC50 [nM] | Y
C[C@@H]1CN(CCO[C@H]2CC[C@H](N3C(=S)N(c4ccc(C#N)c(Cl)c4)C(=O)C3(C)C)CC2)C[C@H](C)N1CC(=O)Nc1cccc2c(N3CCC(=O)NC3=O)nn(C)c12 [Cmpd 3, 2-((2R,6S)-4-(2-((trans-4-(3-(3-Chloro-4-cyanophenyl)-5,5-dimethyl-4-oxo-2-thioxoimidazolidin-1-yl)cyclohexyl)oxy)ethyl)-2,6-dimethylpiperazin-1-yl)-N-(3-(2,4-dioxotetrahydropyrimidin-1(2H)-yl)-1-methyl-1H-indazol-7-yl)acetamide hydrochloride] | 2 to 10 | *** (30%<Y<60%)
C[C@@H]1C[C@H](CCO[C@H]2CC[C@H](N3C(=S)N(c4ccc(C#N)c(C(F)(F)F)c4)C(=O)C3(C)C)CC2)C[C@H](C)N1CC(=O)Nc1cccc2c(N3CCC(=O)NC3=O)nn(C)c12 [Cmpd 14, 2-((2R,4r,6S)-4-(2-((trans-4-(3-(4-Cyano-3-(trifluoromethyl)phenyl)-5,5-dimethyl-4-oxo-2-thioxoimidazolidin-1-yl)cyclohexyl)oxy)ethyl)-2,6-dimethylpiperidin-1-yl)-N-(3-(2,4-dioxotetrahydropyrimidin-1(2H)-yl)-1-methyl-1H-indazol-7-yl)acetamide hydrochloride] | 2 to 10 | * (0<Y≤20%)
